Legend:
Type in all cases: biochemical
ROCK I (AA 6-553) = molecular target: T1, ROCK I (AA 6-553) (Homo sapiens, UniProt Q13464); assay: ROCK inhibition assay, standard coupled enzyme system ("Enzyme"); details: enzyme-linked assay
T1 construct: ROCK I (AA 6-553)
Summary of the method: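 ROCK I (AA 6-553) at 45 nM and 30 °C with 45 μM ATP and 200 μM peptide, in 100 mM HEPES pH 7.5, 10 mM MgCl2, 25 mM NaCl, 2 mM DTT, 1.5% DMSO. ADP output read by a PK/LDH coupled system: 2.5 mM PEP, 350 μM NADH, 30 μg/ml PK, 10 μg/ml LDH.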

[1] = molecular target: T2, full length Aurora-A (AA 1-403) (Homo sapiens, UniProt O14965); assay: Aurora-A inhibition assay, standard coupled enzyme system; details: average Ki if more than one value determined
T2 construct: full length Aurora-A (AA 1-403)
T2 sequence (O14965 1-403): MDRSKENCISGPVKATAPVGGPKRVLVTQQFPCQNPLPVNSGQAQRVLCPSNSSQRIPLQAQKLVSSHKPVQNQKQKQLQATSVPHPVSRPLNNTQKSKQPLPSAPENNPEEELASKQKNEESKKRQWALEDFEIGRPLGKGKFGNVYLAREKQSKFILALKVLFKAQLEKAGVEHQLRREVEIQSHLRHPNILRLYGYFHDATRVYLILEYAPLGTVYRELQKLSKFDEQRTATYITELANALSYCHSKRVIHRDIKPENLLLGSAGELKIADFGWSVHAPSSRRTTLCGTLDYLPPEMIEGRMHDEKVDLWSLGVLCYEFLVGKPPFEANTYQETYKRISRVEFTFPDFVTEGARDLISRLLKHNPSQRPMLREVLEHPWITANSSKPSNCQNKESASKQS

Aurora-C = molecular target: T3, Aurora-C (Homo sapiens, UniProt Q9UQB9); assay: Aurora-C inhibition assay, coupled enzyme system as for Aurora-A; details: average Ki if more than one value determined
T3 sequence (Q9UQB9 1-309): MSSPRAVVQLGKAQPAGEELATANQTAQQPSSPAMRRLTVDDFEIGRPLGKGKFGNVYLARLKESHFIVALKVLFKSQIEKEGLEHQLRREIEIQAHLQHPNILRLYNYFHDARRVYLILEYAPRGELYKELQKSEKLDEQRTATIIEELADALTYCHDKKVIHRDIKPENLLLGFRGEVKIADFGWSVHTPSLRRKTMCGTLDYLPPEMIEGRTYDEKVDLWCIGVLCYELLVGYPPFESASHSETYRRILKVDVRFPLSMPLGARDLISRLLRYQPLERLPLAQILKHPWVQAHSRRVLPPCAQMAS
Procedure: Compounds were screened for their ability to inhibit full length Aurora-A (AA 1-403) activity using a standard coupled enzyme system (Fox et al., Protein Sci. 7, pp. 2249 (1998)). Reactions were carried out in a solution containing 100 mM HEPES (pH 7.5), 10 mM MgCl2, 25 mM NaCl, 300 μM NADH, 1 mM DTT and 3% DMSO. Final substrate concentrations in the assay were 200 μM ATP (Sigma Chemicals, St Louis, Mo.) and 800 μM peptide (LRRASLG, American Peptide, Sunnyvale, Calif.). Reactions were carried out at 30° C. and 35 nM Aurora-A. Final concentrations of the components of the coupled enzyme system were 2.5 mM phosphoenolpyruvate, 200 μM NADH, 60 μg/ml pyruvate kinase and 20 μg/ml lactate dehydrogenase.
(§1) An assay stock buffer solution was prepared containing all of the reagents listed above with the exception of ATP and the test compound of interest. The assay stock buffer solution (60 μl) was incubated in a 96 well plate with 2 μl of the test compound of interest at final concentrations spanning 0.002 μM to 30 μM at 30° C. for 10 min. Typically, a 12 point titration was conducted by preparing serial dilutions (from 1 mM compound stocks) with DMSO of the test compounds in daughter plates. The reaction was initiated by the addition of 5 μl of ATP (final concentration 200 μM). Rates of reaction were obtained using a Molecular Devices Spectramax plate reader (Sunnyvale, Calif.) over 10 min at 30° C. The Ki values were determined from the rate data as a function of inhibitor concentration using computerized nonlinear regression (Prism 3.0, Graphpad Software, San Diego, Calif.). Aurora-C activity was screened in a similar manner using Aurora-C protein. Aurora-B activity was screened using a radioactive assay, such as described in Examples 1 and 2, but using Aurora-B protein.

Aurora-B = Aurora-B (Homo sapiens, UniProt Q96GD4); assay: Aurora-B inhibition assay, radioactive assay; details: average Ki if more than one value determined
Aurora-B, sequence (Q96GD4 whole entry): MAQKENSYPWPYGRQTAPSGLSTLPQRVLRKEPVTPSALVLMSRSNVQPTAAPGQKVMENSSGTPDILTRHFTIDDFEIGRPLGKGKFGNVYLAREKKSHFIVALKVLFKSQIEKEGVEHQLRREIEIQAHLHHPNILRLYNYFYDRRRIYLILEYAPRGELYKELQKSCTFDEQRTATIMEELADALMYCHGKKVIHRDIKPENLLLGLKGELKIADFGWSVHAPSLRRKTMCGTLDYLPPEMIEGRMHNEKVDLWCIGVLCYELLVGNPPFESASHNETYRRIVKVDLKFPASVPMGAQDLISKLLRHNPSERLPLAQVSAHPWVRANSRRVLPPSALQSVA
Procedure: Compounds were screened for their ability to inhibit JAK3 using a standard radioactive enzyme assay. 1.5 μL/well of a DMSO stock containing serial dilutions of a compound of the present invention (concentrations ranging from 667 μM to 46 nM) was placed in a 96 well polycarbonate plate. 50 μL per well of kinase buffer (100 mM HEPES (pH 7.4), 10 mM MgCl2, 25 mM NaCl, 1 mM DTT, and 0.01% bovine serum albumin (BSA)) containing 2 μM poly(Glu)4Tyr and 10 μM ATP was also added to the plate. To initiate the reaction, 50 μL kinase buffer containing 2 nM JAK3 enzyme was added. Final ATP concentration was 5 μM [γ-^33P] ATP (200 μCi ^33P ATP/μmol ATP (Perkin Elmer, Cambridge, Mass.). After 20 minutes at room temperature (25° C.), the reaction was stopped by adding 50 μL 20% trichloroacetic acid (TCA)/0.4 mM ATP to each well. The entire content of each well was then transferred to a 96 well glass fiber filter plate using a TomTek Cell Harvester. After washing, 60 μL scintillation fluid was added and ^33P incorporation detected using a Perkin Elmer TopCount. After removing mean background values for all of the data points the data was fit using Prism software to obtain a Ki(app). Inhibition of JAK2 was measured as above except that final poly(Glu)4Tyr concentration was 15 μM and final ATP concentration was 12 μM.
Some compounds were screened for their ability to inhibit ROCK using a standard radioactive enzyme assay. Assays were carried out in a solution containing 100 mM HEPES (pH 7.5), 10 mM MgCl2, 25 mM NaCl, 2 mM DTT, and 1.5% DMSO. Final substrate concentrations in the assay were 13 μM [γ-^33P] ATP (25 mCi ^33P ATP/mmol ATP, Perkin Elmer, Cambridge, Mass./Sigma Chemicals, St Louis, Mo.) and 27 μM Myelin Basic Protein (MBP). Final enzyme concentration in the assay was 5 nM ROCK. Assays were carried out at room temperature. 1.5 μl of DMSO stock containing serial dilutions of the compound of the present invention (concentrations ranging from 10 μM to 2.6 nM) was placed in a 96 well plate. 50 μl of Solution 1 (100 mM HEPES (pH 7.5), 10 mM MgCl2, […]) was added to the plate. The reaction was initiated by addition of 50 μl of Solution 2 (100 mM HEPES (pH 7.5), 10 mM MgCl2, 4 mM DTT, […] and 10 nM ROCK). After 2 hours the reaction was quenched with 50 μL of 30% trichloroacetic acid (TCA, Fisher) containing 9 mM ATP. Transfer of 140 μL of the quenched reaction to a glass fiber filter plate (Corning, Cat. No. 3511) was followed by washing 3 times with 5% TCA. 50 μL of Optima Gold scintillation fluid (Perkin Elmer) was added and the plates were counted on a Top Count (Perkin Elmer). After removing mean background values for all of the data points the data was fit using Prism software to obtain a Ki(app).
as §1

JAK2 = JAK2 (Homo sapiens, UniProt O60674); assay: JAK2 inhibition assay (radioactive enzyme assay, as for JAK3); details: average Ki if more than one value determined
JAK2, sequence (O60674 whole entry, species assumed): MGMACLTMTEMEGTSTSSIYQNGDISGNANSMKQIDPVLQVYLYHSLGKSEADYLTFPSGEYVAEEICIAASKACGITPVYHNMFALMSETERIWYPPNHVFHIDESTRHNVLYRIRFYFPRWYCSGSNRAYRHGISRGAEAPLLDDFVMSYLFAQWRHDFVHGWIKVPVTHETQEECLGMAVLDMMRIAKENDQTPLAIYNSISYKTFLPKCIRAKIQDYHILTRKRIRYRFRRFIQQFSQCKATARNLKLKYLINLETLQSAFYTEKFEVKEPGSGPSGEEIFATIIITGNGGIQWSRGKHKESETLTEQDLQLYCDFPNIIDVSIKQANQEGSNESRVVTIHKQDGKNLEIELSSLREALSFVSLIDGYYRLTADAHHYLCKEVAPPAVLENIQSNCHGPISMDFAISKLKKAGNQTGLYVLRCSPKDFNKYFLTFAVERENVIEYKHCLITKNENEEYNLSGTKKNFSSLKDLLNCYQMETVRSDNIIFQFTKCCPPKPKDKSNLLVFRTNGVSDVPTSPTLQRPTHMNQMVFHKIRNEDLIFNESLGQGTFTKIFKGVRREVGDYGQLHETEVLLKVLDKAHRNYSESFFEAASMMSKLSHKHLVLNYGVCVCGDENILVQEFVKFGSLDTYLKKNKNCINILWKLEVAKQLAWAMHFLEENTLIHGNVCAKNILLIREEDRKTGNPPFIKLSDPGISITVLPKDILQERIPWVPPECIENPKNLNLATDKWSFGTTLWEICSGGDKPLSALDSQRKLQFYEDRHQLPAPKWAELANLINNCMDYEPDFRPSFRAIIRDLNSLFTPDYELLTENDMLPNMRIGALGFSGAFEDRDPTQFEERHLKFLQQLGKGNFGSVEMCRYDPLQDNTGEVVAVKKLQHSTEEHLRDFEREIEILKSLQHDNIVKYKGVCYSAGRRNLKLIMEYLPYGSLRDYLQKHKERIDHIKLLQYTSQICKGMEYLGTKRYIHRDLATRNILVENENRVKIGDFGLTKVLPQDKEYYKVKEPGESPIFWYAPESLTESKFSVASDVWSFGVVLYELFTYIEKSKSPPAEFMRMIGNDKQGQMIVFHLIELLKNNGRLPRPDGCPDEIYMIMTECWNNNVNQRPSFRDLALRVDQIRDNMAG
Summary of the method: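 Both kinases: poly(Glu)4Tyr substrate in 100 mM HEPES pH 7.4, 10 mM MgCl2, 1 mM DTT. Run 20 min at 25° C, TCA stop, filter-bound ³³P counted, Ki(app) fitted after background subtraction. JAK3: final [γ-³³P]ATP 5 μM, enzyme added as 2 nM solution. JAK2: final poly(Glu)4Tyr 15 μM, final ATP 12 μM.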

T1 sequence (Q13464 6-553, species assumed): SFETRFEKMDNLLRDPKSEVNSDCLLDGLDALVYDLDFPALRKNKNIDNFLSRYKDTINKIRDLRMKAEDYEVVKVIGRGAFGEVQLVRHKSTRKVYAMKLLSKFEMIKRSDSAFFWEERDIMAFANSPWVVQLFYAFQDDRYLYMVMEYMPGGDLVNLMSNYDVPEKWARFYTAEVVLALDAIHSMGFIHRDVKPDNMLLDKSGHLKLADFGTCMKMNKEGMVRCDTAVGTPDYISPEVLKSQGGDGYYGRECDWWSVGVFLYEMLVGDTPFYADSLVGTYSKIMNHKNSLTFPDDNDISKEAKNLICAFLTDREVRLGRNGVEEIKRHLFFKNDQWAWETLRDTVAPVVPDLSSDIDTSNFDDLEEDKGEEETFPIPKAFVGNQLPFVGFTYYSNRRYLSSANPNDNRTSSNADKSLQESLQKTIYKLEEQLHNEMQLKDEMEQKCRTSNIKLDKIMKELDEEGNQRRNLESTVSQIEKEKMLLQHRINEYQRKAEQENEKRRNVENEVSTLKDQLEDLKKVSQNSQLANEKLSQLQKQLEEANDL

Structure (SMILES)	Ki (ROCK I (AA 6-553))	Ki [1]	Ki (Aurora-C)	Ki (Aurora-B)	Ki (JAK2)
C[C@H](Nc1cccc(-c2c[nH]c3ncc(Cl)cc23)n1)c1ccccc1 [Compound 252]	500 to 5000 nM	< 500 nM	< 500 nM	–	–
C[C@@H](Nc1cccc(-c2c[nH]c3ncc(Cl)cc23)n1)c1ccccc1 [Compound 260]	500 to 5000 nM	< 500 nM	< 500 nM	–	–
C[C@H](Nc1nc(-c2c[nH]c3ncc(Cl)cc23)ncc1F)c1cccc(NC(=O)OC(C)(C)C)c1 [Compound 331]	500 to 5000 nM	< 500 nM	< 500 nM	–	–
O=C(CNc1nc(-c2c[nH]c3ncc(Cl)cc23)ncc1F)NCC(F)(F)F [Compound 400]	500 to 5000 nM	< 500 nM	< 500 nM	–	–
COc1cnc(-c2c[nH]c3ncc(Cl)cc23)nc1N[C@@H](C)C(=O)NCC(F)(F)F [Compound 407]	500 to 5000 nM	< 500 nM	< 500 nM	–	–
C#Cc1cnc(-c2c[nH]c3ncc(Cl)cc23)nc1N[C@@H](C)C(=O)NCC(F)(F)F [Compound 411]	500 to 5000 nM	< 500 nM	< 500 nM	–	–
C[C@H](Nc1nc(-c2c[nH]c3ncc(Cl)cc23)ncc1F)C(=O)NCCc1ccccc1 [Compound 433]	500 to 5000 nM	500 to 5000 nM	–	500 to 5000 nM	–
C[C@H](Nc1nc(-c2c[nH]c3ncc(Cl)cc23)ncc1F)C(=O)NCCc1cn(C)cn1 [Compound 434]	500 to 5000 nM	500 to 5000 nM	–	500 to 5000 nM	–
C[C@H](Nc1nc(-c2c[nH]c3ncc(Cl)cc23)ncc1F)C(=O)NCCN1CCOCC1 [Compound 435]	500 to 5000 nM	500 to 5000 nM	–	500 to 5000 nM	–
C[C@H](Nc1nc(-c2c[nH]c3ncc(Cl)cc23)ncc1F)C(=O)NCCN1CCCC1 [Compound 436]	500 to 5000 nM	500 to 5000 nM	–	< 500 nM	–
C[C@H](Nc1nc(-c2c[nH]c3ncc(Cl)cc23)ncc1F)C(=O)NCCc1c[nH]c2ccccc12 [Compound 437]	500 to 5000 nM	< 500 nM	–	500 to 5000 nM	–
C[C@H](Nc1nc(-c2c[nH]c3ncc(Cl)cc23)ncc1F)C(=O)NCCc1ccccn1 [Compound 438]	500 to 5000 nM	500 to 5000 nM	–	500 to 5000 nM	–
C[C@H](Nc1nc(-c2c[nH]c3ncc(Cl)cc23)ncc1F)C(=O)NCCCN1CCCC1 [Compound 439]	500 to 5000 nM	< 500 nM	–	< 500 nM	–
CC(C)OCCCNC(=O)[C@H](C)Nc1nc(-c2c[nH]c3ncc(Cl)cc23)ncc1F [Compound 440]	500 to 5000 nM	500 to 5000 nM	–	500 to 5000 nM	–
C[C@H](Nc1nc(-c2c[nH]c3ncc(Cl)cc23)ncc1F)C(=O)NCCN1CCNC1=O [Compound 441]	500 to 5000 nM	500 to 5000 nM	–	500 to 5000 nM	500 to 5000 nM
C[C@H](Nc1nc(-c2c[nH]c3ncc(Cl)cc23)ncc1F)C(=O)NCCCn1ccnc1 [Compound 442]	500 to 5000 nM	< 500 nM	–	500 to 5000 nM	500 to 5000 nM
C[C@H](Nc1nc(-c2c[nH]c3ncc(Cl)cc23)ncc1F)C(=O)NCC[C@H]1CCCN1C [Compound 448]	500 to 5000 nM	500 to 5000 nM	–	500 to 5000 nM	–
C[C@H](Nc1nc(-c2c[nH]c3ncc(Cl)cc23)ncc1F)C(=O)NCCc1cccnc1 [Compound 449]	500 to 5000 nM	< 500 nM	–	500 to 5000 nM	–
C[C@H](Nc1nc(-c2c[nH]c3ncc(Cl)cc23)ncc1F)C(=O)NCCN(C)C(=O)OC(C)(C)C [Compound 451]	500 to 5000 nM	500 to 5000 nM	–	500 to 5000 nM	–
COc1ccccc1OCCNC(=O)[C@H](C)Nc1nc(-c2c[nH]c3ncc(Cl)cc23)ncc1F [Compound 453]	500 to 5000 nM	500 to 5000 nM	–	500 to 5000 nM	–
CN(C)CC[C@H](Nc1nc(-c2c[nH]c3ncc(Cl)cc23)ncc1F)C(=O)N(C)C [Compound 456]	500 to 5000 nM	< 500 nM	–	500 to 5000 nM	–

Reference: US8501446B2 (Vertex Pharmaceuticals Incorporated, priority 2004, dated 2013)
